Data on seven compounds can be found in patent US4929635A, “New derivatives of 4-vinyl benzoic acid, process for their preparation and their uses in therapeutics and as ligands” (Laboratoires Chauvin-Blache, priority 1984, dated 1990).

The test concerns the target T1, cytosolic receptor of retinoic acid (C.R.A.B.P.) of rat testicles (Rattus norvegicus, UniProt P62966).
T1 construct: to obtain the cytosol; from tissue; host or cells: rat testicles, 105000×g cytosol
In words: Affinity for the cytosolic receptor of retinoic acid (C.R.A.B.P.) of rat testicles: inhibition of specific linking of tritiated retinoic acid. The class given is binding. As to conditions: ligand 4 μM; tritiated retinoic acid 20 nM; rat testicle cytosol 2 mg/ml; 16 h at 4° C., pH 7.4; unmarked retinoic acid = 100% inhibition. The protocol: Affinity for the cytosolic receptor of retinoic acid (C.R.A.B.P.) of rat testicles
The affinity of the compounds of the formula I for the C.R.A.B.P. receptor is determined by measurement of the inhibition of the specific linking of tritiated retinoic acid (*AR) by the various compounds according to the method of ONG and CHYTIL (J. Biol. Chem., 1975, 250, 6113) modified:
The rat testicles thawed to 4° C. are placed in Tris-HCl 50 mM, DTE 2 mM buffer, pH 7.4, then ground in a Potter Teflon/glass grinder (three times at 800 rpm). The ground product is centrifuged at 4000×g for 10 min at 4° C.
The supernatant liquor is then centrifuged for 60 min at 105000×g at 4° C. to obtain the cytosol. The final protein concentration of the cytosol is adjusted to 2 mg/ml.
200 μl of cytosol are incubated for 16 h at 4° C. in the presence of tritiated retinoic acid 20 nM (specific activity: 30 Ci/mmole), in the presence of the ligands to be tested at the concentration of 4 μM.
The incubations are followed by treatment with charcoal-dextran (1%-0.0025%) for 30 min at 4° C. The bound radioactivity is determined by counting in liquid scintillation.

T1 sequence (P62966 whole entry): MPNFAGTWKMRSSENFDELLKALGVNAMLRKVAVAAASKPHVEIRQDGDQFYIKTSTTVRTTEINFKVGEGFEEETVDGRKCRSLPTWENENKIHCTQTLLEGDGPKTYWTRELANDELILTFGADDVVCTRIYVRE

In turn, `C/C(=C\c1ccc(C(=O)O)cc1)c1ccccc1` [Compound 1] displayed an inhibition at 4 µM of 18.9%.
Compound `C/C(=C\c1ccc(C(=O)O)cc1)c1ccc(C(C)C)cc1` [Compound 3, (E)-4-[2-(4-isopropylphenyl)propenyl]benzoic acid] registered an inhibition at 4 µM of 68.5%.
For the compound `C/C(=C\c1ccc(C(=O)O)cc1)c1cccs1` [Compound 9], 4 µM produced 18.5% inhibition.
As to `C/C(=C\c1ccc(C(=O)N2CCN(C)CC2)cc1)c1ccc(C(C)C)cc1` [Compound 11], the inhibition at 4 µM was 27.5%.
In the case of `C/C(=C\c1ccc(C(=O)O)cc1)c1cccc(C(C)C)c1` [Compound 12], at 4 µM the inhibition was 67.5%.
For the compound `C/C(=C\c1ccc(C(=O)O)cc1)c1cc(C(C)C)cs1` [Compound 13], the inhibition at 4 µM came to 72.5%.
In turn, `C/C(=C\c1ccc(C(=O)O)cc1)c1ccc(C(C)C)s1` [Compound 14] yielded an inhibition at 4 µM of 75%.
